Earlier results in patent US6635757B1, “Process for preparing cyclodextrin inclusion complex” (Vittal Mallya Scientific Research Foundation, priority 2001, dated 2003).

SMILES	Activity compared with NSKE (containing azadirachtin-A<70%) (insects; azadirachtin-A of 99% purity)	Sensitivity to sunlight	Physiological concentration required to elicit growth retardation (insects; varies from species to species)
C/C=C(\C)C(=O)O[C@H]1C[C@@H](OC(C)=O)[C@@]2(C(=O)OC)CO[C@H]3[C@@H](O)[C@@](C)([C@]45O[C@@]4(C)[C@@H]4C[C@H]5O[C@@H]5OC=C[C@@]54O)[C@H]4[C@]1(CO[C@]4(O)C(=O)OC)[C@@H]32 [Azadirachtin-A]	not as active as NSKE	–	–
C/C=C(\C)C(=O)O[C@H]1C[C@@H](OC(C)=O)[C@@]2(C(=O)OC)CO[C@H]3[C@@H](O)[C@@](C)([C@]45O[C@@]4(C)[C@H]4C[C@@H]5O[C@@H]5OC=C[C@@]54O)[C@H]4[C@]1(CO[C@]4(O)C(=O)OC)[C@@H]32 [Azadirachtin]	–	extremely sensitive	1-100 ppm
